The target in test [1] is Ephrin type-A receptor 4 (Homo sapiens, UniProt P54764).
The target of test [2] is T1, Serine/threonine-protein kinase A-Raf (Homo sapiens, UniProt P10398).
T1 sequence (P10398 whole entry): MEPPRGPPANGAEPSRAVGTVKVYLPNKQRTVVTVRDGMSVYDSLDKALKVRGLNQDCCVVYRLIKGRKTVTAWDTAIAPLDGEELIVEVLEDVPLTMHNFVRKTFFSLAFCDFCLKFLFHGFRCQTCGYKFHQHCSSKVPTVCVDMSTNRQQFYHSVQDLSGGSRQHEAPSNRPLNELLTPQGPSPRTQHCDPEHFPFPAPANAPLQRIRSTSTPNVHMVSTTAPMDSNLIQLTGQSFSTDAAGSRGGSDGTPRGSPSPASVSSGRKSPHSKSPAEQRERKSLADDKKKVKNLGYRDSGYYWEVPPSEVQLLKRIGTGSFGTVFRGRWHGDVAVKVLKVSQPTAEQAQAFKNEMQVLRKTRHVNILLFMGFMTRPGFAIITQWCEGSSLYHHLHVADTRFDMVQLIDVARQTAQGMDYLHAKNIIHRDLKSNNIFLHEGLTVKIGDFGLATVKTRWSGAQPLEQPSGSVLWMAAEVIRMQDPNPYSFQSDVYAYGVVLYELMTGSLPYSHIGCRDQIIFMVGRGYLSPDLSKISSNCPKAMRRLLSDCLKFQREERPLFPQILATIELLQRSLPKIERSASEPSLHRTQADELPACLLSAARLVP

In test [3] the target is T2, Serine/threonine-protein kinase TBK1 (Homo sapiens, UniProt Q9UHD2).
T2 sequence (Q9UHD2 whole entry): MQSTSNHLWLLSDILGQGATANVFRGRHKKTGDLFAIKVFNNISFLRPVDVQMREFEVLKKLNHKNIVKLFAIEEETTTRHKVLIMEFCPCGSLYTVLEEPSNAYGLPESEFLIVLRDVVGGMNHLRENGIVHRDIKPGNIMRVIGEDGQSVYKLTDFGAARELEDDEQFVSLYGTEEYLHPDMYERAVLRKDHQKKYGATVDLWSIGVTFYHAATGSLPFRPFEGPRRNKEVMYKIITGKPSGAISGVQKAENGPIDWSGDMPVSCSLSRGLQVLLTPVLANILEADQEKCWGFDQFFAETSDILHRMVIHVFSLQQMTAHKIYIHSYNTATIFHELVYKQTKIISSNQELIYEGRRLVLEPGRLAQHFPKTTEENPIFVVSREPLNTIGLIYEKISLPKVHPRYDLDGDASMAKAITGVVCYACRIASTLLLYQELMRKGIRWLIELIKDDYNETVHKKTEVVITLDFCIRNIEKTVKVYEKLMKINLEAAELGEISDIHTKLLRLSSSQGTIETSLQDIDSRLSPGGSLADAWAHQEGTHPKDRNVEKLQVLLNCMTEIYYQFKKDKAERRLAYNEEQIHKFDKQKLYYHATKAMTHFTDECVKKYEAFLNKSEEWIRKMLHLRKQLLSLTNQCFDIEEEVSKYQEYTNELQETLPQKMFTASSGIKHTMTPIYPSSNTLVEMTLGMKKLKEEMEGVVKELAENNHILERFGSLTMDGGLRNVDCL

In test [4] the target is T3, Cysteine--tRNA ligase, cytoplasmic (Homo sapiens, UniProt P49589).
T3 sequence (P49589 whole entry): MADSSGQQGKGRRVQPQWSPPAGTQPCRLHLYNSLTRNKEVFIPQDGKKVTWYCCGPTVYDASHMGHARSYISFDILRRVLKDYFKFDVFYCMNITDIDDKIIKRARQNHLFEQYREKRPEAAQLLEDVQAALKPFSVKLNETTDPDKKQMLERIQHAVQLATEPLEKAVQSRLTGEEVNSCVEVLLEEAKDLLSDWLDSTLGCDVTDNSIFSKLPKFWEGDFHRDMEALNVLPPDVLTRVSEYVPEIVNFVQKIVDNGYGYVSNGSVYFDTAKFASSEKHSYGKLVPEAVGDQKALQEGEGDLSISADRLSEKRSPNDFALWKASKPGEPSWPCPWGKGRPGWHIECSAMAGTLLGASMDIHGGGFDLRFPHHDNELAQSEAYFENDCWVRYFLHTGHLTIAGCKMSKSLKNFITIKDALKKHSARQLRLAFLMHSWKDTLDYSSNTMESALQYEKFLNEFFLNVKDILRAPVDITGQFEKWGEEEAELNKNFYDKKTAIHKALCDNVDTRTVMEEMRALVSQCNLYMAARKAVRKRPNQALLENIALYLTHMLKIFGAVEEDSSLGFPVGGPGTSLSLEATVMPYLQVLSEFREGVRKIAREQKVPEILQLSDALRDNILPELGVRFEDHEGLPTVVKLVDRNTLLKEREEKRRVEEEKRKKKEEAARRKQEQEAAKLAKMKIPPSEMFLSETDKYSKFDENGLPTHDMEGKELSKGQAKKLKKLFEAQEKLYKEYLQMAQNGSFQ

The target in test [5] is T4, Serine/threonine-protein kinase ICK (Homo sapiens, UniProt Q9UPZ9).
T4 sequence (Q9UPZ9 whole entry): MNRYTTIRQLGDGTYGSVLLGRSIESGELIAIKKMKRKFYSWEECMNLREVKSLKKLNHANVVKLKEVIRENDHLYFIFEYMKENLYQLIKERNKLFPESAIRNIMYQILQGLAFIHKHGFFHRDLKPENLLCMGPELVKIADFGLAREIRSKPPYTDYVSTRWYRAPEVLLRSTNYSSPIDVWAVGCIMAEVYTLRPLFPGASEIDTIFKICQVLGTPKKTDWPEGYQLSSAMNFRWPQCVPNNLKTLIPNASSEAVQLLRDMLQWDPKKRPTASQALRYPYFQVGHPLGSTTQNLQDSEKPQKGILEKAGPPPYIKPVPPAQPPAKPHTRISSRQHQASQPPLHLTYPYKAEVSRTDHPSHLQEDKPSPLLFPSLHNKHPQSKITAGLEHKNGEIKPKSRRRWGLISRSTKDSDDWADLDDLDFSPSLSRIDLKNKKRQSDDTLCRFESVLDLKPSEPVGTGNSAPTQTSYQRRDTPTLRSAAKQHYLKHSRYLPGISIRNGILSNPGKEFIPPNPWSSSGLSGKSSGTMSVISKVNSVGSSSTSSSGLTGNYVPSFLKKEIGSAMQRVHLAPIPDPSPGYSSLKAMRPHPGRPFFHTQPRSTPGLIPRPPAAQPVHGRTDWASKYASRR

Test [6] has as its target Adenylate kinase 2, mitochondrial (Homo sapiens, UniProt P54819).
The target of test [7] is TRAF2 and NCK-interacting protein kinase (Homo sapiens, UniProt Q9UKE5).
For test [8], the target named is Mitogen-activated protein kinase kinase kinase kinase 5 (Homo sapiens, UniProt Q9Y4K4).

The structures appear in SMILES notation. Calls of active or inactive are those of the source. Rule as the data show it, for most assays here: actives have a measured Kd and inactives only a lower limit.
Also: in the data inactive means no Kd found up to 30 µM.

Sequence of Mitogen-activated protein kinase kinase kinase kinase 5 (Q9Y4K4 whole entry): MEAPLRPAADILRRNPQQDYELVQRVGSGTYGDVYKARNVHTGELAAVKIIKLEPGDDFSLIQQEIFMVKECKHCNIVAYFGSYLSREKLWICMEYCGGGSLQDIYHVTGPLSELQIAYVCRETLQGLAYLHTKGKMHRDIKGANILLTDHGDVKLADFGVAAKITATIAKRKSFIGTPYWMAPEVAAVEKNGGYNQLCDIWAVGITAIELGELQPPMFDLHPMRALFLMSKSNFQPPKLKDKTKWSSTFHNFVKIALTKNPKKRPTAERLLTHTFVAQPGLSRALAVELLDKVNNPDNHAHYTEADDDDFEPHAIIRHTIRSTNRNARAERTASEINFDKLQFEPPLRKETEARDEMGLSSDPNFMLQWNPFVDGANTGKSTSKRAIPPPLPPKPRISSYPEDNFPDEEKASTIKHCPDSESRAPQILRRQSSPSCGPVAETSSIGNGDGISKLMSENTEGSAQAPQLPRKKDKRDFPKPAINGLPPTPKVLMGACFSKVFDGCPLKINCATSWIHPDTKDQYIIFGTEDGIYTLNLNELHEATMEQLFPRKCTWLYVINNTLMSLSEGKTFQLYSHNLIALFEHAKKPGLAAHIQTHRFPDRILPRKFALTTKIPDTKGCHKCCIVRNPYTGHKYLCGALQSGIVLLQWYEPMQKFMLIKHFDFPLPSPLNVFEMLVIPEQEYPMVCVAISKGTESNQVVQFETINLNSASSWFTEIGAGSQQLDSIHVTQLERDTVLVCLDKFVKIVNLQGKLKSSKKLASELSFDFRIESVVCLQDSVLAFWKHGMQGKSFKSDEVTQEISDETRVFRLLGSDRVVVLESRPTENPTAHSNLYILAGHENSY
Sequence of TRAF2 and NCK-interacting protein kinase (Q9UKE5 whole entry): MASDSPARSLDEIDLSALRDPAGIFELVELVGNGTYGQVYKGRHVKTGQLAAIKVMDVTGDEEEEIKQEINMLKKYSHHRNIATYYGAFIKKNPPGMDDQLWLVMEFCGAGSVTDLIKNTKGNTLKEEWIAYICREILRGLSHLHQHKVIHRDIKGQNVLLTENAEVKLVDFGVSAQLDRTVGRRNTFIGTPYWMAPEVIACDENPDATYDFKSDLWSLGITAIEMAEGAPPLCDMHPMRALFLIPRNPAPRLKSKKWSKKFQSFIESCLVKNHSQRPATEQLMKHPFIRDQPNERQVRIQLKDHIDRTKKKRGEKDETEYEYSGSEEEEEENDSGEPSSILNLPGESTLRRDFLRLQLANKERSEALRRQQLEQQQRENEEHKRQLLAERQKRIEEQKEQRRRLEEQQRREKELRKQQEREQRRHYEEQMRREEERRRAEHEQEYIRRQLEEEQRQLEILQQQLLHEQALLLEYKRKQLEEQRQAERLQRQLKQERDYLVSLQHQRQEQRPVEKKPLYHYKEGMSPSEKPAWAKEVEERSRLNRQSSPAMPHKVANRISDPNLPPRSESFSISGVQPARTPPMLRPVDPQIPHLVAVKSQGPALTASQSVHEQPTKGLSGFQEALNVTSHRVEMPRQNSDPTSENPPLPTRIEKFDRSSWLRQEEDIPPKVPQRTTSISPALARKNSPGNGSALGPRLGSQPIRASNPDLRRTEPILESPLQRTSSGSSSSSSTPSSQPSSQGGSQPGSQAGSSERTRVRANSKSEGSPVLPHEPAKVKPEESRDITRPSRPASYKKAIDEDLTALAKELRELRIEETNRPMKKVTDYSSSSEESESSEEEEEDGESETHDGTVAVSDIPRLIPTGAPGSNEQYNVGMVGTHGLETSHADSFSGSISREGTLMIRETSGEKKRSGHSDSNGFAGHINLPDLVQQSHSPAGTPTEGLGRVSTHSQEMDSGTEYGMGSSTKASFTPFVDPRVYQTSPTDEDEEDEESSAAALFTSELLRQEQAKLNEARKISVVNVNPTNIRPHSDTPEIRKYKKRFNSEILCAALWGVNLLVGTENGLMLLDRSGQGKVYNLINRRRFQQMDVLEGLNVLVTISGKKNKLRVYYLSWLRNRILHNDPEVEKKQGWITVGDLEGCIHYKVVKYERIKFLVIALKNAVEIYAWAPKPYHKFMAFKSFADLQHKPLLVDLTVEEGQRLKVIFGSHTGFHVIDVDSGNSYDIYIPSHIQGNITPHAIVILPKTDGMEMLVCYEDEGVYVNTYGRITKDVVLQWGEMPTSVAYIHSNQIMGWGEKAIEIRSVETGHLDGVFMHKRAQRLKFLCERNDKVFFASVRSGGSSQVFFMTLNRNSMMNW
Sequence of Ephrin type-A receptor 4 (P54764 whole entry): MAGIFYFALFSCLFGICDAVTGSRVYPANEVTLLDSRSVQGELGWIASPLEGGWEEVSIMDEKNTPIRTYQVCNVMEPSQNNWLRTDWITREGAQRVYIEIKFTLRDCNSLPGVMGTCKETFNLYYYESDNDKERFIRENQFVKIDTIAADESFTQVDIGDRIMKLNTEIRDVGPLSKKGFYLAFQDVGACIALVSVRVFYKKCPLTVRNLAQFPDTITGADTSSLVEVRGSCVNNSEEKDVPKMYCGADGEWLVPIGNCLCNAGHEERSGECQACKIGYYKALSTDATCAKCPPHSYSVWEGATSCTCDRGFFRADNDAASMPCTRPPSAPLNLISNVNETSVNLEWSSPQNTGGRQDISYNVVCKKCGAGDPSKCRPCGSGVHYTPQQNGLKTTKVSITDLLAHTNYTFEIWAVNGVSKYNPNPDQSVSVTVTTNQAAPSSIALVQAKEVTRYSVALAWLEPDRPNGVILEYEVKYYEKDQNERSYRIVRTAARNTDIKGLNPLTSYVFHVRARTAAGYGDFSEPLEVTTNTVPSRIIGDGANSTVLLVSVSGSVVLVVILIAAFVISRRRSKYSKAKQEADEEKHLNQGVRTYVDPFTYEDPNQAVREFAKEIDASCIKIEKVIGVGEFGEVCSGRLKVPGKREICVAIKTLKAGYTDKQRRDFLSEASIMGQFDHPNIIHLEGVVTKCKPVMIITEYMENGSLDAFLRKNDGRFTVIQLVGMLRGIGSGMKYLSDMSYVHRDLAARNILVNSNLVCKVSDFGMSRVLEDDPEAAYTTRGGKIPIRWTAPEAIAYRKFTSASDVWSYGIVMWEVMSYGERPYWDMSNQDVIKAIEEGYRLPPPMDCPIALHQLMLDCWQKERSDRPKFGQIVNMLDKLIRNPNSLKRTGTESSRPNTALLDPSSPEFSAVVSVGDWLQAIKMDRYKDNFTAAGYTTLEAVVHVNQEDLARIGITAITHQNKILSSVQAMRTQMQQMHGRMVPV

As for `COc1cc2nccc(Oc3ccc(NC(=O)C4(C(=O)Nc5ccc(F)cc5)CC4)cc3)c2cc1OC` [CABOZANTINIB], the Kd in test [1], in test [2], in test [3], in test [4], in test [5] and in test [6] was > 30 µM (inactive) each time. Also, the Kd in test [7] and in test [8] was > 30 µM (inactive) throughout.
As for `Cc1c(Cn2c(C)nc3c(C(=O)O)cc(N4CCOCC4)cc32)cccc1C(F)(F)F` [GSK-2636771], the Kd in test [1], in test [2], in test [3], in test [4], in test [5] and in test [6] was > 30 µM (inactive) in each case. The Kd in test [7] and in test [8] was > 30 µM (inactive) each time.
Consider `Cc1cc(Nc2nc(N[C@@H](C)c3ncc(F)cn3)ncc2Cl)n[nH]1` [AZD-1480], for which the Kd in test [1], in test [2], in test [3], in test [4], in test [5] and in test [6] was > 30 µM (inactive) throughout. The Kd in test [7] and in test [8] was > 30 µM (inactive) each time.
Take `Cc1ccc(C(=O)Nc2ccc(Oc3cc4cnn(C)c4cc3-c3cn[nH]c3)c(F)c2)c(=O)n1-c1ccc(F)cc1` [MERESTINIB]: the Kd in test [1], in test [2], in test [3], in test [4], in test [5] and in test [6] was > 30 µM (inactive) each time. Also, the Kd in test [7] and in test [8] was > 30 µM (inactive) each time.
As for `C[C@]1(O)C[C@@H](c2nc(-c3ccc4ccc(-c5ccccc5)nc4c3)c3c(N)nccn32)C1` [LINSITINIB], the Kd in test [1], in test [2], in test [3], in test [4], in test [5] and in test [6] was > 30 µM (inactive) in each case. Besides, the Kd is > 30 µM (inactive) in test [7] and 0.614 µM (active) in test [8].
In the case of `CNC(=O)c1cccc(-c2ccc3c(N4CCOC[C@@H]4C)nc(N4CCOC[C@@H]4C)nc3n2)c1` [VISTUSERTIB], the Kd in test [1], in test [2], in test [3], in test [4], in test [5] and in test [6] was > 30 µM (inactive) throughout. Besides, the Kd in test [7] and in test [8] was > 30 µM (inactive) each time.
`O=C(NOC[C@H](O)CO)c1ccc(F)c(F)c1Nc1ccc(I)cc1F` [MIRDAMETINIB]: the Kd in test [1], in test [2], in test [3], in test [4], in test [5] and in test [6] was > 30 µM (inactive) each time. Also, the Kd in test [7] and in test [8] was > 30 µM (inactive) throughout.
`CC1(COc2ccc3c(c2)ncn3-c2ccc3cccc(N4CCC(N)CC4)c3n2)COC1` [CRENOLANIB]: the Kd in test [1], in test [2], in test [3], in test [4], in test [5] and in test [6] was > 30 µM (inactive) throughout. Moreover, the values for the Kd in test [7] and in test [8] were 0.107 µM and 0.455 µM (active), respectively.
Turning to `COc1ccc2c(OCc3nnc4ccc(-c5ccccc5)nn34)ccnc2c1` [AMG-208], the Kd in test [1], in test [2], in test [3], in test [4], in test [5] and in test [6] was > 30 µM (inactive) throughout. Moreover, the Kd in test [7] and in test [8] was > 30 µM (inactive) in each case.

The values above are taken from ChEMBL document CHEMBL3991601, “The target landscape of clinical kinase drugs” (Science, 2017).
